Earlier results as cited in publication PMC6777988 (ACS infectious diseases, 2018).

How the values were obtained:
[1] = test system: C. parvum; details: combined with partial CpCDPK1 siRNA knockdown
[2] = test system: Cryptosporidium; details: immunocompromised patients and malnourished children

Row | Compound | effect on proliferation of C. parvum parasites [1] | efficacy in patients [2]
1 | CCOc1ccc2cc(-c3nn(CC4CCN(C)CC4)c4ncnc(N)c34)ccc2c1 [Compound 1294] | further inhibitory effects | 
2 | CCOc1ccc2cc(-c3nn(C(C)(C)C)c(N)c3C(N)=O)cnc2c1 [Compound 1517] | further inhibitory effects | 
3 | CC(=O)Oc1ccccc1C(=O)Nc1ncc([N+](=O)[O-])s1 [Nitazoxanide, nitazoxanide] |  | minimal efficacy
